Data from ChEMBL document CHEMBL1152667, “Synthesis and radiopharmacological investigation of 3-[4'-[(18)F]fluorobenzylidene]indolin-2-one as possible tyrosine kinase inhibitor” (Bioorg Med Chem, 2009).

Legend:
Thymus = assay: Biodistribution in Wistar rat thymus at 1.7 MBq, iv administered as single dose measured after 5 mins post-injection by gamma counting; assay type: ADME, organism-based; details: in vivo
Harderian gland [1] = assay: Biodistribution in Wistar rat harderian gland at 1.7 MBq, iv administered as single dose measured after 5 mins post-injection by gamma counting; assay type: ADME, organism-based; details: in vivo
[2] = Biodistribution in Wistar rat urine at 1.7 MBq, iv administered as single dose measured after 1 min post-injection by gamma counting; assay type: ADME, organism-based; details: in vivo
Harderian gland [3] = assay: Biodistribution in Wistar rat harderian gland assessed as standard uptake value at 1.7 MBq, iv administered as single dose measured after 60 mins post-injection by gamma counting; assay type: ADME, organism-based; details: in vivo, 1 h
[4] = Ratio of drug level in pancreas to blood in Wistar rat at 1.7 MBq, iv administered as single dose measured after 5 mins post-injection; assay type: ADME, organism-based
[5] = Biodistribution in Wistar rat hair/skin assessed as standard uptake value at 1.7 MBq, iv administered as single dose measured after 60 mins post-injection by gamma counting; assay type: ADME, organism-based; details: in vivo, 1 h
[6] = Biodistribution in Wistar rat urine at 1.7 MBq, iv administered as single dose measured after 30 mins post-injection by gamma counting; assay type: ADME, organism-based; details: in vivo, 0.5 h
Spleen = assay: Biodistribution in Wistar rat spleen at 1.7 MBq, iv administered as single dose measured after 30 mins post-injection by gamma counting; assay type: ADME, organism-based; details: in vivo, 0.5 h
Adrenal gland [7] = assay: Biodistribution in Wistar rat adrenal gland assessed as standard uptake value at 1.7 MBq, iv administered as single dose measured after 5 mins post-injection by gamma counting; assay type: ADME, organism-based; details: in vivo
Liver [8] = assay: Biodistribution in Wistar rat liver assessed as standard uptake value at 1.7 MBq, iv administered as single dose measured after 10 mins post-injection by gamma counting; assay type: ADME, organism-based; details: in vivo
Heart [9] = assay: Biodistribution in Wistar rat heart assessed as standard uptake value at 1.7 MBq, iv administered as single dose measured after 10 mins post-injection by gamma counting; assay type: ADME, organism-based; details: in vivo
Muscle tissue = assay: Biodistribution in Wistar rat muscle assessed as standard uptake value at 1.7 MBq, iv administered as single dose measured after 60 mins post-injection by gamma counting; assay type: ADME, organism-based; details: in vivo, 1 h
[10] = Biodistribution in Wistar rat stomach at 1.7 MBq, iv administered as single dose measured after 5 mins post-injection by gamma counting; assay type: ADME, organism-based; details: in vivo
[11] = Biodistribution in Wistar rat brown adipose tissue assessed as standard uptake value at 1.7 MBq, iv administered as single dose measured after 10 mins post-injection by gamma counting; assay type: ADME, organism-based; details: in vivo
Liver [12] = assay: Biodistribution in Wistar rat liver at 1.7 MBq, iv administered as single dose measured after 30 mins post-injection by gamma counting; assay type: ADME, organism-based; details: in vivo, 0.5 h
[13] = Biodistribution in Wistar rat thyroid gland at 1.7 MBq, iv administered as single dose measured after 30 mins post-injection by gamma counting; assay type: ADME, organism-based; details: in vivo, 0.5 h
Adrenal gland [14] = assay: Biodistribution in Wistar rat adrenal gland at 1.7 MBq, iv administered as single dose measured after 30 mins post-injection by gamma counting; assay type: ADME, organism-based; details: in vivo, 0.5 h
Harderian gland [15] = assay: Biodistribution in Wistar rat harderian gland at 1.7 MBq, iv administered as single dose measured after 1 min post-injection by gamma counting; assay type: ADME, organism-based; details: in vivo
Lung = assay: Biodistribution in Wistar rat lung at 1.7 MBq, iv administered as single dose measured after 10 mins post-injection by gamma counting; assay type: ADME, organism-based; details: in vivo
[16] = Ratio of drug level in brain to blood in Wistar rat at 1.7 MBq, iv administered as single dose measured after 5 mins post-injection; assay type: ADME, organism-based
[17] = Phase 2 elimination half life in Wistar rat at 30 MBq, iv by radio-HPLC analysis; assay type: ADME, organism-based; details: in vivo, read-out: beta t1/2 (converted)
Femur = assay: Biodistribution in Wistar rat femur at 1.7 MBq, iv administered as single dose measured after 30 mins post-injection by gamma counting; assay type: ADME, organism-based; details: in vivo, 0.5 h
Brain = assay: Biodistribution in Wistar rat brain at 1.7 MBq, iv administered as single dose measured after 10 mins post-injection by gamma counting; assay type: ADME, organism-based; details: in vivo
Liver [18] = assay: Biodistribution in Wistar rat liver at 1.7 MBq, iv administered as single dose measured after 5 mins post-injection by gamma counting; assay type: ADME, organism-based; details: in vivo
[19] = Ratio of drug level in harderian gland to blood in Wistar rat at 1.7 MBq, iv administered as single dose measured after 5 mins post-injection; assay type: ADME, organism-based
Liver [20] = assay: Biodistribution in Wistar rat liver assessed as standard uptake value at 1.7 MBq, iv administered as single dose measured after 30 mins post-injection by gamma counting; assay type: ADME, organism-based; details: in vivo, 0.5 h
Pancreas = assay: Biodistribution in Wistar rat pancreas at 1.7 MBq, iv administered as single dose measured after 30 mins post-injection by gamma counting; assay type: ADME, organism-based; details: in vivo, 0.5 h
[21] = Biodistribution in Wistar rat adipose tissue assessed as standard uptake value at 1.7 MBq, iv administered as single dose measured after 30 mins post-injection by gamma counting; assay type: ADME, organism-based; details: in vivo, 0.5 h
[22] = Ratio of drug level in adrenal gland to blood in Wistar rat at 1.7 MBq, iv administered as single dose measured after 5 mins post-injection; assay type: ADME, organism-based
Liver [23] = assay: Biodistribution in Wistar rat liver at 1.7 MBq, iv administered as single dose measured after 1 min post-injection by gamma counting; assay type: ADME, organism-based; details: in vivo
Intestine = assay: Biodistribution in Wistar rat intestine at 1.7 MBq, iv administered as single dose measured after 1 min post-injection by gamma counting; assay type: ADME, organism-based; details: in vivo
Testes = assay: Biodistribution in Wistar rat testes at 1.7 MBq, iv administered as single dose measured after 5 mins post-injection by gamma counting; assay type: ADME, organism-based, Testis; details: in vivo
Kidney [24] = assay: Biodistribution in Wistar rat kidney at 1.7 MBq, iv administered as single dose measured after 1 min post-injection by gamma counting; assay type: ADME, organism-based; details: in vivo
Blood = assay: Biodistribution in Wistar rat blood assessed as standard uptake value at 1.7 MBq, iv administered as single dose measured after 5 mins post-injection by gamma counting; assay type: ADME, organism-based; details: in vivo
Heart [25] = assay: Biodistribution in Wistar rat heart at 1.7 MBq, iv administered as single dose measured after 1 min post-injection by gamma counting; assay type: ADME, organism-based; details: in vivo
Kidney [26] = assay: Biodistribution in Wistar rat kidney assessed as standard uptake value at 1.7 MBq, iv administered as single dose measured after 1 min post-injection by gamma counting; assay type: ADME, organism-based; details: in vivo
[27] = Ratio of drug level in brown adipose tissue to blood in Wistar rat at 1.7 MBq, iv administered as single dose measured after 5 mins post-injection; assay type: ADME, organism-based
[28] = Biodistribution in Wistar rat thyroid gland assessed as standard uptake value at 1.7 MBq, iv administered as single dose measured after 30 mins post-injection by gamma counting; assay type: ADME, organism-based; details: in vivo, 0.5 h
[29] = Biodistribution in Wistar rat hair/skin assessed as standard uptake value at 1.7 MBq, iv administered as single dose measured after 30 mins post-injection by gamma counting; assay type: ADME, organism-based; details: in vivo, 0.5 h
[30] = Ratio of drug level in heart to blood in Wistar rat at 1.7 MBq, iv administered as single dose measured after 60 mins post-injection; assay type: ADME, organism-based
[31] = Ratio of drug level in harderian gland to blood in Wistar rat at 1.7 MBq, iv administered as single dose measured after 60 mins post-injection; assay type: ADME, organism-based
[32] = Biodistribution in Wistar rat thyroid gland at 1.7 MBq, iv administered as single dose measured after 60 mins post-injection by gamma counting; assay type: ADME, organism-based; details: in vivo, 1 h
Heart [33] = assay: Biodistribution in Wistar rat heart at 1.7 MBq, iv administered as single dose measured after 5 mins post-injection by gamma counting; assay type: ADME, organism-based; details: in vivo

O=C1Nc2ccccc2/C1=C/c1ccc([18F])cc1
Drug uptake (Thymus): 0.34 %ID
Drug uptake (Harderian gland [1]): 0.34 %ID
Drug uptake [2]: 3.97 %ID
SUV (Harderian gland [3]): 0.46%
Kp at 5 min [4]: 3
SUV [5]: 0.19%
Drug uptake [6]: 11.23 %ID
Drug uptake (Spleen): 0.08 %ID
SUV (Adrenal gland [7]): 5.71%
SUV (Liver [8]): 3.03%
SUV (Heart [9]): 0.88%
SUV (Muscle tissue): 0.19%
Drug uptake [10]: 0.94 %ID
SUV [11]: 1.83%
Drug uptake (Liver [12]): 8.95 %ID
Drug uptake [13]: 0.03 %ID
Drug uptake (Adrenal gland [14]): 0.04 %ID
Drug uptake (Harderian gland [15]): 0.29 %ID
Drug uptake (Lung): 0.66 %ID
Kp at 5 min [16]: 3
half-life [17]: 4.45 min
Drug uptake (Femur): 0.13 %ID
Drug uptake (Brain): 1.09 %ID
Drug uptake (Liver [18]): 18.4 %ID
Kp at 5 min [19]: 4.4
SUV (Liver [20]): 1.68%
Drug uptake (Pancreas): 0.11 %ID
SUV [21]: 1.17%
Kp at 5 min [22]: 10.2
Drug uptake (Liver [23]): 17.16 %ID
Drug uptake (Intestine): 8.84 %ID
Drug uptake (Testes): 0.38 %ID
Drug uptake (Kidney [24]): 3.13 %ID
SUV (Blood): 0.56%
Drug uptake (Heart [25]): 1.01 %ID
SUV (Kidney [26]): 3.36%
Kp at 5 min [27]: 4.1
SUV [28]: 0.4%
SUV [29]: 0.48%
Kp at 1 h [30]: 1.8
Kp at 1 h [31]: 6.8
Drug uptake [32]: 0.01 %ID
Drug uptake (Heart [33]): 0.54 %ID
